From PMC6149849, “Cymantrenyl-Nucleobases: Synthesis, Anticancer, Antitrypanosomal and Antimicrobial Activity Studies” (Molecules : A Journal of Synthetic Chemistry and Natural …, 2017)
Like-named read-outs stand apart in the source and are kept apart here.

What was measured:
[1] = system: MDA-MB-231 (triple negative breast adenocarcinoma); assay: MTT cytotoxicity assay, MDA-MB-231; type: cell-based, human
Method: (§3) Anticancer activity of cymantrenes was determined using a panel of human cancer cell lines that were derived from solid tumors. […] The inhibitory effect of cymantrene derivatives on cell proliferation and growth was determined based on survival curves and was expressed as IC50 values (concentration required to achieve a 50% decrease in cell viability when compared to the viability of untreated control cells) calculated using GraphPad Prism 4.02 software for Windows (GraphPad Software, San Diego, CA, USA). Cell viability was determined by the MTT microplate spectrophotometric cytotoxicity test.
(§4) Cells were grown as a monolayer in DMEM growth medium, supplemented with 10% FBS, penicillin (10 U/mL) and streptomycin (50 μg/mL), under standard conditions (37 °C, 5% CO2 and 95% air, 100% humidity) and periodically checked for Mycoplasma contamination.
(§5) The cytotoxicity of cymantrene derivatives was evaluated by the MTT microplate methods as described elsewhere [67] by incubating the cells with increasing concentrations of tested compounds for 24 h. Briefly, 0.1 mL of logarithmically growing cells were seeded in a 96-well microplate (5 × 10^4 cells/well) a day before the experiments and after 24 h of culture, tested compounds, dissolved in DMSO, and diluted in culture medium, were added. […] After further incubation for 24 h, the medium was replaced with fresh medium and the cells were allowed to grow for additional 48 h. Then, the medium was aspirated and 0.05 mL of MTT (final concentration of 5 mg/mL medium) added to each well, and the cells were incubated for further 4 h. The absorbance of the product, resulting from the MTT reduction, was read with a microplate reader at 545 nm. The percentage of viable cells was calculated by comparing the absorbance of treated cells with that of the untreated control cells (taken as 100%). The IC50 concentration of each compound was calculated from the cell survival curves using GraphPad Prism 4.02 software for Windows (GraphPad Software, San Diego, CA, USA).

[2] = system: S. aureus ATCC 29213 (MSSA); assay: Antibacterial liquid microdilution (CLSI M07-A8); type: cell-based, Staphylococcus aureus; conditions: 18 to 24 h
Method: (§1) Organometallic compounds play an increasingly important role in the search for new antibacterial agents. We, therefore, thought to investigate also the bactericidal activity of the newly synthesized cymantrenes 1–7, compound C and CymH. The antibacterial activity of the compounds was tested against Gram-positive methicillin-sensitive Staphylococcus aureus (MSSA), methicillin-resistant S. aureus (MRSA), vancomycin-intermediate S. aureus (VISA), S. epidermidis, and Gram-negative Escherichia coli bacterial strains, and expressed as minimal inhibitory concentration (MIC) values (Table 3).
(§2) The antibacterial activity of CymH, 1–7 and C and the reference drugs penicillin G and polymyxin B was tested by the liquid microdilution method under standard conditions using twofold dilution series, as described in the Clinical and Laboratory Standards Institute (CLSI), reference method M07-A8, and expressed as minimal inhibitory concentration (MIC) values. A panel of Gram-positive bacterial strains, S. aureus ATCC® 29213 (sensitive to methicillin, (MSSA)), S. aureus ATCC® 43300 (resistant to methicillin, (MRSA)), S. aureus ATCC 700787™ (intermediate to vancomycin, (VISA)), and S. epidermidis ATCC 12228™, and one Gram-negative, strain E. coli ATCC BAA-198™ (ESBL) were used. In addition, four clinical isolates of S. aureus (MSSA and MRSA) and two clinical isolates of S. epidermidis that were collected from different patients at the Medical University of Warsaw, Poland, were also tested. The bacterial cells were cultivated on tryptic soy agar (TSA) and nutrient agar (NA), according to ATCC recommendations. All of the strains were incubated at 37 °C. Tested compounds were dissolved in DMSO and then serially diluted twofold with cation-adjusted Mueller-Hinton broth (CAMHB). Then, 95 µL of the dilutions were dispensed into microdilution sterile plates (Mar-Four), followed by the addition of 5 µL of bacteria inoculum containing 5 × 10^4 CFU/mL. The final concentrations of the compounds ranged from 512 to 2 µg/mL. Each compound was tested in triplicate, and Penicillin G (8–0.15 µg/mL) and Polymyxin B (256–0.0625 µg/mL) were used as controls. The plates were incubated at 37 °C for 18 to 24 h depending on the bacterial strain. Thereafter, the absorbance was measured at λ = 540 nm and λ = 595 nm using a Spectrostar Omega microplate reader (BMG Labtech, Offenburg, Germany). The MIC value was defined as the lowest concentration of a compound that reduced the growth by 100%.

[3] = system: S. aureus ATCC 43300 (MRSA); assay: Antibacterial liquid microdilution (CLSI M07-A8); type: cell-based, Staphylococcus aureus; conditions: 18 to 24 h
Method: as §1, §2

[4] = system: S. aureus ATCC 700787 (VISA); assay: Antibacterial liquid microdilution (CLSI M07-A8); type: cell-based, Staphylococcus aureus; conditions: 18 to 24 h
Method: as §1, §2

[5] = system: human myeloid leukemia HL-60 cells; assay: General cytotoxicity, resazurin viability assay
Method: All of the cultures were maintained at 37 °C in a humidified atmosphere containing 5% of CO2. Toxicity assays were performed, as previously described, with some modifications. In brief, trypanosomes and HL-60 cells were seeded at an initial cell density of 10^4/mL and 5 × 10^4/mL, respectively, in 96-well plates in a final volume of 200 μL culture medium containing various concentrations of test compounds dissolved in 100% DMSO. […] The controls contained DMSO alone. In all of the experiments, the final DMSO concentration was 0.9%. After 24 h incubation, 20 µL of a 0.5 mM resazurin solution prepared in PBS was added and the cultures were incubated for a further 48 h. Resazurin is a vital dye that, when being reduced by living cells, changes its colour from blue to pink. Thus, by measuring absorbance, the proliferation of cells can be easily determined. The change in absorbance was read with a microplate reader using a test wavelength of 570 nm and a reference wavelength of 630 nm. GI50 values were calculated by linear interpolation according to the method described by Huber and Koella. MIC values were determined microscopically.

[6] = system: Gram-positive bacterial strains, including MRSA and VISA pathogens; assay: Antibacterial activity over the panel of strains (summary statements); type: cell-based; conditions: reference bacterial strains
Method: as §1, §2

[7] = Determination of log Po/w by chromatographic (RP-HPLC) method, Soczewiński–Wachtmeister relationship; conditions: water/methanol, C18, 20 °C
Method: In this study, a chromatographic method and the Soczewiński–Wachtmeister relationship were used in order to determine the lipophilicity of the compounds [38, 39, 40, 41]
For the determination of log Po/w values, the newly synthesized compounds were analyzed by an Agilent 1200 system (Agilent Technologies, Santa Clara, CA, USA) equipped with a Zorbax Eclipse XDB column (C18, 250 × 4.6 mm, Agilent Technologies) and controlled by the software ChemStation Data Analysis. The separation was isocratic, and water/methanol (HPLC gradient grade, Sigma-Aldrich, St. Louis, MO, USA) mixtures containing 0.50, 0.55, 0.60, 0.65, 0.70, 0.75, 0.80, 0.85, 0.90 and 0.95 volume fractions of organic modifier were used as the mobile phase. The flow rate was 1.0 mL/min for the 7 and 2 and 0.8 mL/min for other compounds. The chromatographic peaks of test compounds were detected by UV absorbance at 230 nm. The column temperature was kept at 20 °C. The dead-time values were measured from the effluent peaks. All of the runs were performed in triplicate, and the resulting average values were used for the calculation of the retention factors.

[8] = system: U87-MG (glioblastoma); assay: MTT cytotoxicity assay, U87-MG; type: cell-based, human
Method: as §3, §4, §5

[9] = system: S. epidermidis ATCC 12228; assay: Antibacterial liquid microdilution (CLSI M07-A8); type: cell-based, Staphylococcus epidermidis; conditions: 18 to 24 h
Method: as §1, §2

[10] = system: MCF-7 (hormone-responsive breast adenocarcinoma); assay: MTT cytotoxicity assay, MCF-7; type: cell-based, human
Method: as §3, §4, §5

[11] = system: E. coli ATCC BAA-198 (ESBL); assay: Antibacterial liquid microdilution (CLSI M07-A8); type: cell-based, Escherichia coli; conditions: 18 to 24 h
Method: as §1, §2

[12] = system: HepG2 (hepatocellular carcinoma); assay: MTT cytotoxicity assay, HepG2; type: cell-based, human
Method: as §3, §4, §5

[13] = system: SKOV-3 cells; assay: Apoptotic/necrotic cell death, Hoechst 33258/propidium iodide staining, fluorescence microscopy; type: cell-based, human; conditions: for increase of apoptotic cells compared to untreated control cells: SKOV-3, 24 h treatment with IC50 concentrations, post-treatment 24 and 48 h
Method: To determine the mode of cell death that was triggered by cymantrene derivatives, appropriately stained SKOV-3 cells were evaluated for morphological changes using fluorescence microscopy. For evaluation of apoptosis and autophagy, cells were stained with Hoechst 33258/propidium iodide to distinguish between live, apoptotic and necrotic cells and reveal condensed chromatin and apoptotic bodies (a hallmark of apoptosis), and with acridine orange to detect the development of acidic vesicular organelles (AVOs—a hallmark of autophagy).
One day prior to the experiments, cells were seeded at the appropriate density into 35 mm diameter dishes. […] At the end of incubation, the medium was aspirated, the cell monolayer was washed twice with pre-warmed PBS, and fresh medium was added. The cells were cultured in drug-free medium for an additional 24 or 48 h to enable them to recover after the exposure to the compounds and to repair any induced damages.
Quantitative analysis of morphological changes that are associated with apoptosis, necrosis, and autophagy were assessed using a fluorescence microscope (Olympus IX70, Tokyo, Japan) at 400× magnification, as described elsewhere. At the indicated time points, cells were washed with PBS, trypsinized, and centrifuged at 1000 rpm (fixed angle rotor, 72× g) for 5 min at 37 °C. The supernatant was removed and the cell pellet (100 µL) was transferred to the Eppendorf tube, mixed with Ho33258 (2 µL, 0.13 mM) and PI (2 µL, 0.23 mM), and incubated for 5 min in the dark at room temperature. At least 300 stained cells were counted in triplicate in each of the three independent experiments. Cells were classified as live, apoptotic, or necrotic on the basis of their morphological and staining characteristics, and each fraction was related to the total cell number.

[14] = 24 h incubation, MTT, means ± SEM, read-out: cytotoxicity IC50, MDA-MB-231
[15] = concentration at which all cells were killed
[16] = read-out: HL-60 GI50, 50% growth inhibition
[17] = 24 h incubation, MTT, means ± SEM, read-out: cytotoxicity IC50, U87-MG
[18] = 24 h incubation, MTT, means ± SEM, read-out: cytotoxicity IC50, MCF-7
[19] = 24 h incubation, MTT, means ± SEM, read-out: cytotoxicity IC50, HepG2

| Structure (SMILES) | IC50 [1, 14] | MIC, S. aureus ATCC 29213 (MSSA) [2] | MIC, S. aureus ATCC 43300 (MRSA) [3] | MIC, S. aureus ATCC 700787 (VISA) [4] | HL-60 MIC [5, 15] | GI50 [5, 16] | antibacterial activity in words [6] | Log Po/w [7] | IC50 [8, 17] | MIC, S. epidermidis ATCC 12228 [9] | IC50 [10, 18] | MIC, E. coli ATCC BAA-198 [11] | IC50 [12, 19] | IC50 [1] | increase of apoptotic cells compared to untreated control cells [13] | IC50 [8] | IC50 [10] | IC50 [12] | other results |
| --- | --- | --- | --- | --- | --- | --- | --- | --- | --- | --- | --- | --- | --- | --- | --- | --- | --- | --- | --- |
| O=[C]=[Mn](=[C]=O)(=[C]=O)[CH]1C=CC=C1 [CymH, tricarbonyl(η^5-cyclopentadienyl)manganese, reference compound] | 68.6 ± 1.74 µM | >512 mg/L | >512 mg/L | >512 mg/L | >100 µM | > 100 µM | not active | 3.5 | 84.4 ± 4.22 µM | >512 mg/L | 86 ± 1.3 µM | >512 mg/L | 74.7 ± 3.73 µM |  |  |  |  |  |  |
| COC(CCn1cc(F)c(=O)n(C)c1=O)[C]12[CH]3[CH]4[CH]5[CH]1[Mn]4532.[C-]#[O+].[C-]#[O+].[C-]#[O+] (racemic) [Compound 4] |  | >512 mg/L | >512 mg/L | >512 mg/L |  |  |  |  |  | >512 mg/L |  | >512 mg/L |  | > 150 µM | only a three-fold increase | > 150 µM | > 150 µM | > 150 µM | GI50 [5]: > 100 µM; HL-60 MIC [5]: >100 µM |
| O=c1[nH]c(=O)n(CCC(O)[C]23[CH]4[CH]5[CH]6[CH]2[Mn]5643[P](c2ccccc2)(c2ccccc2)c2ccccc2)cc1F.[C-]#[O+].[C-]#[O+] (racemic) [Compound 3] | 35.7 ± 1.44 µM | >256 mg/L | >256 mg/L | >256 mg/L | 100 µM | 30.6 ± 2.6 µM |  | 5.2 | 24.9 ± 1.24 µM | >256 mg/L | 57.8 ± 2.89 µM | >256 mg/L | 65.8 ± 3.29 µM |  | only a three-fold increase |  |  |  | mitotic cell death ([13]; SKOV-3, morphology): induced extensive mitotic cell death |
| CCC(=O)[C]12[CH]3[CH]4[CH]5[CH]1[Mn]4532.[C-]#[O+].[C-]#[O+].[C-]#[O+] (stereo not drawn) [Compound 7, propionylocymantrene] |  | >512 mg/L | >512 mg/L | >512 mg/L |  |  | not active |  |  | >512 mg/L |  | >512 mg/L |  | 63 ± 1.32 µM | 9 fold | 83.6 ± 1.18 µM | > 150 µM | 110 ± 2.48 µM | apoptotic cell fraction predominantly increased ([13]; SKOV-3, IC50 concentrations): late-apoptotic cell fraction |
